Results as given in patent US20260297042A1, “BIARYLAMIDE DERIVATIVES AND THEIR USE AS PKMYT1 INHIBITORS” (CANCER RESEARCH TECHNOLOGY LIMITED, priority 2023, published 2026).
pIC50: −log10 of the molar value. Structures can show the parent of a compound that is named as a salt.

What was measured:
[1] = biological target: T1, Human PKMYT1 (Homo sapiens, UniProt Q99640); test: PKMYT1 biochemical ADP-Glo enzymatic assay; details: PKMYT1 kinase domain 15 nM; ADP-Glo; banded values
T1 construct: Human PKMYT1 75-362 was cloned as a TEV cleavable 6xHis fusion; 6xHis (TEV cleavable) (cleaved yes); made in house; host or cells: bacterial cells
T1 sequence (Q99640 75-362): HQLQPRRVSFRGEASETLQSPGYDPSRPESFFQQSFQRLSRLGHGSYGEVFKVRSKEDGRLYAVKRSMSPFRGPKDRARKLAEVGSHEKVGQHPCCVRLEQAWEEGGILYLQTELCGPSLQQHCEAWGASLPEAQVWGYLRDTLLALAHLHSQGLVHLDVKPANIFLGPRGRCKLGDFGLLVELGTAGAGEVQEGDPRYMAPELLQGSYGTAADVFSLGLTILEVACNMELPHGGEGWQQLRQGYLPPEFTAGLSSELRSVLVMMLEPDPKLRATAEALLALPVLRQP
In short: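 Compounds were titrated over 10 points (3-fold steps), then 15 nM purified PKMYT1 kinase domain (aa 75-362) and 500 µM ATP were added in pH 7.5 HEPES buffer. After 60 min at 26 °C, remaining ATP was depleted and ADP converted to luminescence for IC50 fitting.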

[2] = biological target: T2, WEE1 (Homo sapiens, UniProt P30291); test: Selectivity versus WEE1 assay (ADP-Glo enzymatic assay); type: biochemical; details: for pIC50: WEE1 15 nM, ADP-Glo, banded values; for PKMYT1 vs. WEE1 selectivity: fold difference in selectivity for PKMYT1 over WEE1, banded
T2 construct: purchased Thermo Fisher PR7373A
T2 sequence (P30291 whole entry): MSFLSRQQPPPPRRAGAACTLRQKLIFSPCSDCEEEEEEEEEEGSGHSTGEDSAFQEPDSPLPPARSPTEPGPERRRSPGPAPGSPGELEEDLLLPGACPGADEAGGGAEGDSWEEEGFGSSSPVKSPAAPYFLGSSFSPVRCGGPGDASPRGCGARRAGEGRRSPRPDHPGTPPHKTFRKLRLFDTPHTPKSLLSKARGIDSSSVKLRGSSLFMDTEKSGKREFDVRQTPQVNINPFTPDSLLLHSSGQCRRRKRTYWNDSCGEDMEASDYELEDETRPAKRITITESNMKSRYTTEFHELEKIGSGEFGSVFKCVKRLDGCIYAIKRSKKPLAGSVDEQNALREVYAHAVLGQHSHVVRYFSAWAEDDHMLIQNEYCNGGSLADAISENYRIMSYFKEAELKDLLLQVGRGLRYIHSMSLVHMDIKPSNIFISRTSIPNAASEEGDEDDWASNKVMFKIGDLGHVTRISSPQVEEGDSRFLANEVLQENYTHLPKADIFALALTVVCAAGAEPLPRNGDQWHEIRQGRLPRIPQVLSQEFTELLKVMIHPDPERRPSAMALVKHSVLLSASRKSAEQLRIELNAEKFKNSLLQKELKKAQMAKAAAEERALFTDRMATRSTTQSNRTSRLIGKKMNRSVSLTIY
In short: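 Compounds were pre-dispensed, enzyme (15 nM final) was added in pH 7.5 HEPES buffer, and ATP ([…]) then started a 60 min incubation at 26° C. Afterwards ADP-Glo reagents were added in turn and luminescence was measured to derive IC50 values.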

SMILES	pIC50 [1]	pIC50 [2]	PKMYT1 vs. WEE1 selectivity [2]
CCC(C(=O)N1CCN(C)CC1)n1ccc(Nc2ncc(C(=O)Nc3c(C)ccc(O)c3C)s2)n1 (stereo not drawn) [BAA-533, N-(3-hydroxy-2,6-dimethylphenyl)-2-((1-(1-(4-methylpiperazin-1-yl)-1-oxobutan-2-yl)-1H-pyrazol-3-yl)amino)thiazole-5-carboxamide]	> 7.30	< 4.96	Y (1000-5000 fold)
Cc1ccc(O)c(C)c1NC(=O)c1cnc(Nc2ccn(C(C)C(=O)N3CCN(C)CC3)n2)s1 (stereo not drawn) [BAA-534, N-(3-hydroxy-2,6-dimethylphenyl)-2-((1-(1-(4-methylpiperazin-1-yl)-1-oxopropan-2-yl)-1H-pyrazol-3-yl)amino)thiazole-5-carboxamide]	> 7.30	< 4.96	Y (1000-5000 fold)
Cc1ccc(O)c(C)c1NC(=O)c1cnc(Nc2cnn(C)c2)s1 [BAA-536, N-(3-hydroxy-2,6-dimethylphenyl)-2-((1-methyl-1H-pyrazol-4-yl)amino)thiazole-5-carboxamide hydrochloride]	6.00 to 7.30	4.96 to 6.00	X (100-<1000 fold)
Cc1ccc(O)c(C)c1NC(=O)c1cnc(Nc2cc(C(=O)N3CCOCC3)n(C)n2)s1 [BAA-537, N-(3-hydroxy-2,6-dimethylphenyl)-2-((1-methyl-5-(morpholine-4-carbonyl)-1H-pyrazol-3-yl)amino)thiazole-5-carboxamide]	6.00 to 7.30	4.96 to 6.00	W (10-<100 fold)
COC1CCN(C(=O)Cn2cc(C)c(Nc3ncc(C(=O)Nc4c(C)ccc(O)c4C)s3)n2)C1 (stereo not drawn) [BAA-538, N-(3-hydroxy-2,6-dimethylphenyl)-2-((1-(2-(3-methoxypyrrolidin-1-yl)-2-oxoethyl)-4-methyl-1H-pyrazol-3-yl)amino)thiazole-5-carboxamide]	> 7.30	4.96 to 6.00	X (100-<1000 fold)
COCCN(CCOC)C(=O)Cn1cc(C)c(Nc2ncc(C(=O)Nc3c(C)ccc(O)c3C)s2)n1 [BAA-542, 2-((1-(2-(bis(2-methoxyethyl)amino)-2-oxoethyl)-4-methyl-1H-pyrazol-3-yl)amino)-N-(3-hydroxy-2,6-dimethyl-phenyl)thiazole-5-carboxamide]	> 7.30	< 4.96	X (100-<1000 fold)
CCN(CC)C(=O)c1cc(Nc2ncc(C(=O)Nc3c(C)ccc(O)c3C)s2)nn1C [BAA-545, 2-((5-(diethylcarbamoyl)-1-methyl-1H-pyrazol-3-yl)amino)-N-(3-hydroxy-2,6-dimethylphenyl)thiazole-5-carboxamide]	6.00 to 7.30	4.96 to 6.00	W (10-<100 fold)
Cc1ccc(O)c(C)c1NC(=O)c1cnc(Nc2cn(C)nc2C(F)(F)F)s1 [BAA-548, N-(3-hydroxy-2,6-dimethylphenyl)-2-((1-methyl-3-(trifluoromethyl)-1H-pyrazol-4-yl)amino)thiazole-5-carboxamide]	6.00 to 7.30	< 4.96	X (100-<1000 fold)
CCN(CCS(C)(=O)=O)C(=O)Cn1cc(C)c(Nc2ncc(C(=O)Nc3c(C)ccc(O)c3C)s2)n1 [BAA-555, 2-((1-(2-(ethyl(2-(methylsulfonyl)ethyl)amino)-2-oxoethyl)-4-methyl-1H-pyrazol-3-yl)amino)-N-(3-hydroxy-2,6-dimethylphenyl)thiazole-5-carboxamide]	> 7.30	4.96 to 6.00	Y (1000-5000 fold)
Cc1ccc(O)c(C)c1NC(=O)c1cnc(Nc2cnn(CC(=O)N3CCCC3)c2C)s1 [BAA-556, N-(3-hydroxy-2,6-dimethylphenyl)-2-((5-methyl-1-(2-oxo-2-(pyrrolidin-1-yl)ethyl)-1H-pyrazol-4-yl)amino)thiazole-5-carboxamide]	6.00 to 7.30	< 4.96	X (100-<1000 fold)
COc1cncnc1Nc1ncc(C(=O)Nc2c(C)ccc(O)c2C)s1 [BAA-559, N-(3-hydroxy-2,6-dimethylphenyl)-2-((5-methoxypyrimidin-4-yl)amino)thiazole-5-carboxamide]	> 7.30	4.96 to 6.00	X (100-<1000 fold)
COc1c(Cl)ncnc1Nc1ncc(C(=O)Nc2c(C)ccc(O)c2C)s1 [BAA-562, 2-((6-chloro-5-methoxypyrimidin-4-yl)amino)-N-(3-hydroxy-2,6-dimethylphenyl)thiazole-5-carboxamide]	> 7.30	< 4.96	Y (1000-5000 fold)
Cc1c(O)cc(Br)c(C)c1NC(=O)c1cnc(Nc2cc(C)n(C3CCS(=O)(=O)C3)n2)s1 (stereo not drawn) [BAA-563, N-(3-Bromo-5-hydroxy-2,6-dimethyl-phenyl)-2-[[1-(1,1-dioxothiolan-3-yl)-5-methyl-pyrazol-3-yl]amino]thiazole-5-carboxamide]	6.00 to 7.30	4.96 to 6.00	W (10-<100 fold)
Cc1ccc(O)c(C)c1NC(=O)c1cnc(Nc2cc(C)n(C3CCS(=O)(=O)C3)n2)s1 (stereo not drawn) [BAA-564, 2-[[1-(1,1-Dioxothiolan-3-yl)-5-methyl-pyrazol-3-yl]amino]-N-(3-hydroxy-2,6-dimethyl-phenyl)thiazole-5-carboxamide]	6.00 to 7.30	4.96 to 6.00	W (10-<100 fold)

Next, values leading:

pIC50 [1]	pIC50 [2]	PKMYT1 vs. WEE1 selectivity [2]	SMILES
> 7.30	4.96 to 6.00	X (100-<1000 fold)	CCN(CCO)C(=O)Cn1cc(C)c(Nc2ncc(C(=O)Nc3c(C)ccc(O)c3C)s2)n1 [BAA-535, 2-((1-(2-(Ethyl(2-hydroxyethyl)amino)-2-oxoethyl)-4-methyl-1H-pyrazol-3-yl)amino)-N-(3-hydroxy-2,6-dimethylphenyl)thiazole-5-carboxamide]
6.00 to 7.30	< 4.96	X (100-<1000 fold)	CCOc1ccccc1Nc1ncc(C(=O)Nc2c(C)ccc(O)c2C)s1 [BAA-539, 2-((2-ethoxyphenyl)amino)-N-(3-hydroxy-2,6-dimethylphenyl)thiazole-5-carboxamide. TFA salt]
> 7.30	4.96 to 6.00	X (100-<1000 fold)	Cc1ccc(O)c(C)c1NC(=O)c1cnc(Nc2cc(C)n(CC(C)O)n2)s1 (stereo not drawn) [BAA-540, N-(3-hydroxy-2,6-dimethylphenyl)-2-((1-(2-hydroxypropyl)-5-methyl-1H-pyrazol-3-yl)amino)thiazole-5-carboxamide]
6.00 to 7.30	4.96 to 6.00	W (10-<100 fold)	Cc1ccc(O)c(C)c1NC(=O)c1cnc(Nc2cc(C(=O)N3CCCC3)n(C)n2)s1 [BAA-544, N-(3-hydroxy-2,6-dimethylphenyl)-2-((1-methyl-5-(pyrrolidine-1-carbonyl)-1H-pyrazol-3-yl)amino)thiazole-5-carboxamide]
6.00 to 7.30	< 4.96	X (100-<1000 fold)	Cc1ccc(O)c(C)c1NC(=O)c1cnc(Nc2nccn2C)s1 [BAA-552, N-(3-hydroxy-2,6-dimethylphenyl)-2-((1-methyl-1H-imidazol-2-yl)amino)thiazole-5-carboxamide]
6.00 to 7.30	< 4.96	Y (1000-5000 fold)	Cc1ccc(O)c(C)c1NC(=O)c1cnc(Nc2cn(CC(=O)N3CCCC3)nc2C)s1 [BAA-558, N-(3-hydroxy-2,6-dimethylphenyl)-2-((3-methyl-1-(2-oxo-2-(pyrrolidin-1-yl)ethyl)-1H-pyrazol-4-yl)amino)thiazole-5-carboxamide]
> 7.30	< 4.96	Y (1000-5000 fold)	Cc1ccnc(Nc2ncc(C(=O)Nc3c(C)ccc(O)c3C)s2)n1 [BAA-567, N-(3-hydroxy-2,6-dimethylphenyl)-2-((4-methylpyrimidin-2-yl)amino)thiazole-5-carboxamide]
> 7.30	< 4.96	X (100-<1000 fold)	COc1cnc(Cl)nc1Nc1ncc(C(=O)Nc2c(C)ccc(O)c2C)s1 [BAA-568, 2-((2-chloro-5-methoxypyrimidin-4-yl)amino)-N-(3-hydroxy-2,6-dimethylphenyl)thiazole-5-carboxamide]
> 7.30	< 4.96	X (100-<1000 fold)	Cc1cncc(Nc2ncc(C(=O)Nc3c(C)ccc(O)c3C)s2)n1 [BAA-570, N-(3-hydroxy-2,6-dimethylphenyl)-2-((6-methylpyrazin-2-yl)amino)thiazole-5-carboxamide]
> 7.30	< 4.96	Y (1000-5000 fold)	CCn1cc(C#N)c(Nc2ncc(C(=O)Nc3c(C)ccc(O)c3C)s2)n1 [BAA-573, 2-((4-cyano-1-ethyl-1H-pyrazol-3-yl)amino)-N-(3-hydroxy-2,6-dimethylphenyl)thiazole-5-carboxamide]
> 7.30	6.00 to 7.30	W (10-<100 fold)	Cc1ccc(O)c(C)c1NC(=O)c1cnc(Nc2cc(N3CCNCC3)ncn2)s1 [BAA-575, N-(3-Hydroxy-2,6-dimethylphenyl)-2-((6-(piperazin-1-yl)pyrimidin-4-yl)amino)thiazole-5-carboxamide]
